Patent publication US20040076974A1, “Liver necrosis predictive genes” (priority 2002, published 2004)
“And” between values parts separate entries of the source, which are not always exact repeats. Equal entries are not always repeated. Where two headings read alike, the source gives them in different places.

Legend:
Sprague Dawley rats = settings: for Liver Necrosis / Score (histopathology liver necrosis severity score): rat, intraperitoneal; for Liver Necrosis: 72 hours after treatment; for Score (histopathology liver necrosis severity score): 72 hours, 1 = not remarkable, 2 and higher increasing severity
Procedure, shortened: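 Toxicity calls (necrosis present or absent at 72 h) and histopathology scores were correlated with tissue gene expression from Crl:CD Sprague Dawley rats. Animals, usually 3 treated with compound by i.p. route and 3 given vehicle, were killed at 6, 24 or 72 h and tissues frozen immediately in liquid nitrogen.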

[1] = system: toxicologically relevant rat genes (rat CT array); settings: 24 h

ClC(Cl)(Cl)Cl [carbon tetrachloride]
Liver Toxicity Necrosis Classification (Sprague Dawley rats; 72 h, dose 250): yes
Liver Toxicity Necrosis Classification (Sprague Dawley rats; 72 h, dose 1000): yes
Liver Toxicity Necrosis Classification (Sprague Dawley rats; compound-dose group at 72 h, CCL4 1000, DMN 20, LPS 8): yes
Liver Toxicity Necrosis Classification (Sprague Dawley rats; compound-dose group at 72 h, dose 250): yes
Liver Toxicity Necrosis Classification (Sprague Dawley rats; compound-dose group at 72 h, dose 1000): yes
Liver Toxicity Necrosis Classification (Sprague Dawley rats; compound-dosegroup at 72 h, dose 250): yes
Liver Toxicity Necrosis Classification (Sprague Dawley rats; compound-dosegroup at 72 h, dose 1000): yes
Liver Necrosis (Sprague Dawley rats; dose 0.25 ml/kg): Yes
Score (histopathology liver necrosis severity score) (Sprague Dawley rats; dose 0.25 ml/kg): 3
Liver Necrosis (Sprague Dawley rats; dose 1 ml/kg): Yes
Score (histopathology liver necrosis severity score) (Sprague Dawley rats; dose 1 ml/kg): 6
14-3-3 zeta expression (treatment/control) ([1]; dose 250, listed as CCL4): 1.66 and 1.924 and 1.756
17-beta hydroxysteroid dehydrogenase, type 2 expression (treatment/control) ([1]; dose 250, listed as CCL4): 1.054 and 0.5508 and 0.756
Cathepsin L, sequence 2 expression (treatment/control) ([1]; dose 250, listed as CCL4): 1.932 and 2.846 and 1.646
Dynamin-1 (D100) expression (treatment/control) ([1]; dose 250, listed as CCL4): 0.7967 and 0.581 and 0.7391
Gadd45 expression (treatment/control) ([1]; dose 250, listed as CCL4): 2.248 and 2.519 and 1.891
Gamma-actin, cytoplasmic expression (treatment/control) ([1]; dose 250, listed as CCL4): 1.21 and 1.729 and 1.683
Insulin-like growth factor binding protein 1 expression (treatment/control) ([1]; dose 250, listed as CCL4): 1.423 and 1.69 and 1.605
L-gulono-gamma-lactone oxidase expression (treatment/control) ([1]; dose 250, listed as CCL4): 0.5457 and 0.345 and 0.5416
Matrin F/G expression (treatment/control) ([1]; dose 250, listed as CCL4): 0.8257 and 0.6948 and 0.7947
Ornithine decarboxylase expression (treatment/control) ([1]; dose 250, listed as CCL4): 1.229 and 1.514 and 1.453
PAR interacting protein expression (treatment/control) ([1]; dose 250, listed as CCL4): 1.251 and 1.611 and 1.178
Phase-1 RCT-33 expression (treatment/control) ([1]; dose 250, listed as CCL4): 0.7
Phase-1 RCT-36 expression (treatment/control) ([1]; dose 250, listed as CCL4): 0.9183 and 0.9601
Phase-1 RCT-38 expression (treatment/control) ([1]; dose 250, listed as CCL4): 0.6811 and 0.8069
Phase-1 RCT-39 expression (treatment/control) ([1]; dose 250, listed as CCL4): 1.553
Phase-1 RCT-40 expression (treatment/control) ([1]; dose 250, listed as CCL4): 0.8329
Phase-1 RCT-48 expression (treatment/control) ([1]; dose 250, listed as CCL4): 0.8905
Phase-1 RCT-49 expression (treatment/control) ([1]; dose 250, listed as CCL4): 1.595 and 1.935 and 1.969
Phase-1 RCT-50 expression (treatment/control) ([1]; dose 250, listed as CCL4): 1.199 and 1.292
Phase-1 RCT-68 expression (treatment/control) ([1]; dose 250, listed as CCL4): 1.615
Phase-1 RCT-78 expression (treatment/control) ([1]; dose 250, listed as CCL4): 0.6214
Phase-1 RCT-83 expression (treatment/control) ([1]; dose 250, listed as CCL4): 0.8265 and 0.5965 and 0.5296
Phase-1 RCT-89 expression (treatment/control) ([1]; dose 250, listed as CCL4): 0.7738 and 0.5787 and 0.6881
Phase-1 RCT-92 expression (treatment/control) ([1]; dose 250, listed as CCL4): 0.6412 and 0.598 and 0.6063
Phase-1 RCT-128 expression (treatment/control) ([1]; dose 250, listed as CCL4): 0.7659 and 0.5352 and 0.6882
Phase-1 RCT-144 expression (treatment/control) ([1]; dose 250, listed as CCL4): 1.636 and 2.462 and 1.54
Phase-1 RCT-145 expression (treatment/control) ([1]; dose 250, listed as CCL4): 1.894
Phase-1 RCT-180 expression (treatment/control) ([1]; dose 250, listed as CCL4): 1.103
Phase-1 RCT-182 expression (treatment/control) ([1]; dose 250, listed as CCL4): 0.5663 and 0.6692
Phase-1 RCT-213 expression (treatment/control) ([1]; dose 250, listed as CCL4): 1.658 and 1.455
Phase-1 RCT-256 expression (treatment/control) ([1]; dose 250, listed as CCL4): 0.6795 and 0.8008
Phase-1 RCT-264 expression (treatment/control) ([1]; dose 250, listed as CCL4): 0.5556 and 0.3693 and 0.5559
Phase-1 RCT-288 expression (treatment/control) ([1]; dose 250, listed as CCL4): 0.6979 and 0.5773 and 0.6386
Phase-1 RCT-291 expression (treatment/control) ([1]; dose 250, listed as CCL4): 0.7629 and 0.7701
Phase-1 RCT-295 expression (treatment/control) ([1]; dose 250, listed as CCL4): 1.942 and 1.579
Ribosomal protein S17 expression (treatment/control) ([1]; dose 250, listed as CCL4): 1.826 and 2.664 and 2.129
Senescence marker protein-30 expression (treatment/control) ([1]; dose 250, listed as CCL4): 0.7864 and 0.5048 and 0.8299
Zinc finger protein expression (treatment/control) ([1]; dose 250, listed as CCL4): 1.078 and 1.318 and 1.451
14-3-3 zeta expression (treatment/control) ([1]; dose 1000): 2.165
17-beta hydroxysteroid dehydrogenase, type 2 expression (treatment/control) ([1]; dose 1000): 0.5477
Cathepsin L, sequence 2 expression (treatment/control) ([1]; dose 1000): 4.767
Dynamin-1 (D100) expression (treatment/control) ([1]; dose 1000): 0.4373
Gadd45 expression (treatment/control) ([1]; dose 1000): 2.03
Gamma-actin, cytoplasmic expression (treatment/control) ([1]; dose 1000): 2.857
Insulin-like growth factor binding protein 1 expression (treatment/control) ([1]; dose 1000): 2.908
L-gulono-gamma-lactone oxidase expression (treatment/control) ([1]; dose 1000): 0.2874
Matrin F/G expression (treatment/control) ([1]; dose 1000): 0.5748
Ornithine decarboxylase expression (treatment/control) ([1]; dose 1000): 2.004
PAR interacting protein expression (treatment/control) ([1]; dose 1000): 1.736
Phase-1 RCT-33 expression (treatment/control) ([1]; dose 1000): 0.4824
Phase-1 RCT-36 expression (treatment/control) ([1]; dose 1000): 0.6382
Phase-1 RCT-38 expression (treatment/control) ([1]; dose 1000): 0.5871
Phase-1 RCT-39 expression (treatment/control) ([1]; dose 1000): 1.821
Phase-1 RCT-40 expression (treatment/control) ([1]; dose 1000): 0.7596
Phase-1 RCT-48 expression (treatment/control) ([1]; dose 1000): 0.9803
Phase-1 RCT-49 expression (treatment/control) ([1]; dose 1000): 2.488
Phase-1 RCT-50 expression (treatment/control) ([1]; dose 1000): 1.792
Phase-1 RCT-68 expression (treatment/control) ([1]; dose 1000): 1.656
Phase-1 RCT-78 expression (treatment/control) ([1]; dose 1000): 0.5578
Phase-1 RCT-83 expression (treatment/control) ([1]; dose 1000): 0.3247
Phase-1 RCT-89 expression (treatment/control) ([1]; dose 1000): 0.4606
Phase-1 RCT-92 expression (treatment/control) ([1]; dose 1000): 0.3009
Phase-1 RCT-128 expression (treatment/control) ([1]; dose 1000): 0.3095
Phase-1 RCT-144 expression (treatment/control) ([1]; dose 1000): 2.627
Phase-1 RCT-145 expression (treatment/control) ([1]; dose 1000): 1.753
Phase-1 RCT-180 expression (treatment/control) ([1]; dose 1000): 1.291
Phase-1 RCT-182 expression (treatment/control) ([1]; dose 1000): 0.3598
Phase-1 RCT-207 expression (treatment/control) ([1]; dose 1000): 2.086
Phase-1 RCT-213 expression (treatment/control) ([1]; dose 1000): 1.988
Phase-1 RCT-256 expression (treatment/control) ([1]; dose 1000): 0.6382
Phase-1 RCT-264 expression (treatment/control) ([1]; dose 1000): 0.2087
Phase-1 RCT-288 expression (treatment/control) ([1]; dose 1000): 0.4221
Phase-1 RCT-291 expression (treatment/control) ([1]; dose 1000): 0.5561
Phase-1 RCT-295 expression (treatment/control) ([1]; dose 1000): 2.11
Phase-1 RCT-296 expression (treatment/control) ([1]; dose 1000): 0.2278
Ribosomal protein S17 expression (treatment/control) ([1]; dose 1000): 3.461
Senescence marker protein-30 expression (treatment/control) ([1]; dose 1000): 0.2057
Zinc finger protein expression (treatment/control) ([1]; dose 1000): 1.697
